Results published in patent US8796416B1, “ACTH prophylactic treatment of renal disorders” (Questcor Pharmaceuticals, Inc, priority 2010, dated 2014).

System: melanocortin receptor
Assay: Melanocortin receptor modulation by ACTH1-39 (applicants' finding, no method given)

H-Ser-Tyr-Ser-Met-Glu-His-Phe-Arg-Trp-Gly-Lys-Pro-Val-Gly-Lys-Lys-Arg-Arg-Pro-Val-Lys-Val-Tyr-Pro-Asp-Gly-Ala-Glu-Asp-Gln-Leu-Ala-Glu-Ala-Phe-Pro-Leu-Glu-Phe-OH (H-SYSMEHFRWGKPVGKKRRPVKVYPDGAEDQLAEAFPLEF-OH) [ACTH1-39]
melanocortin receptor modulation: pan-melanocortin receptor modulator
